Patent US11752219B2, “Substrate delivery of embedded liposomes” (NUtech Ventures, priority 2015, dated 2023)
≈ marks a conversion by molar mass, not a printed value.

Key:
[1] = tested on: 21MT-1 metastatic breast cancer cells; assay: Doxorubicin potency assay (MTT); format: cell-based, human; conditions: DOX concentration, 24 hours
Procedure: The DOX concentration lethal to 50% of the 21MT-1 cells (LC50) was determined utilizing the MTT (3-(4,5-[…])2,5-diphenyl tetrazolium bromide) assay kit from Life Technologies (Carlsbad, Calif., USA). This colorimetric assay assesses cell health as a function of the mitochondrial conversion of MTT salt to Formazan. A two-step procedure was implemented for precise loading of DOX into the HALNPs and then into the HALNP-PEM platform.
First a solution of […] of DOX in 0.05×PBS was used to rehydrate a lyophilized vial of HALNPs and excess (un-encapsulated) DOX was removed using ultracentrifugation (140,000 g, 1.25 hrs, 4° C.). […] The initial vial of HALNPs (1 mg Total Lipid) concentration was known, thus both the total amount of encapsulated DOX and lipid were fully determined. […]
21MT-1 cells were seeded at a density of 32,000 cells/well in three 48 well plates with different DOX configurations: 1) PEM platform with embedded HALNPDOX [(PLL/SPS)4.5(HALNPDOX)(PLL/SPS)2.5], 2) Bolus form HALNPDOX, and 3) free non-encapsulated DOX. […] Cells were then lysed with lysis buffer (acidified IPA) and the absorbance was measured at 570 and 620 nm using a Beckman Coulter AD340 plate reader (Indianapolis, Ind., USA). Percent viability was determined by normalization of the 570/620 absorbance ratio to the control untreated cells and positive control dead cells.

Cort Astro = assay: DOX potency assay (MTT); format: cell-based, rat; conditions: DOX concentration, 24-hour incubation
Procedure: (§1) Encapsulation of DOX into HALNPs Doxorubicin (DOX) was encapsulated inside the aqueous core of the HALNPs as described above and in Hayward et al, Sci. Rep. 2015, 5:14683. Briefly, a vial of lyophilized HALNPs (0.5 mg lipid) was brought to room temperature, and rehydrated with 1/10th its original pre-lyophilized volume of 0.05×PBS containing 250 μg DOX. Following a thirty minute incubation time to allow for lipid membrane re-assembly, the vial was brought back to its full pre-lyophilized volume with 1×PBS and ultracentrifuged to remove non-encapsulated DOX (140,000 g, 4° C., and 1.25 hr.). The auto-fluorescent property of DOX was then used to determine the entrapment payload. […]
(§2) To determine the effect of free DOX and HALNPDOX on the cell viability of Cort Astro, MG and A172 cells, an MTT assay was utilized as described herein to calculate the lethal concentration to kill 50% of the cells (see also, e.g., Hayward et al, Sci. Rep. 2015, 5:14683; Wilson et al, Nanoscale, 2015, 7:18477-18488; Natarajan et al, PLOS One, 2015, 10:e0134541). […] The cells were then lysed with acidified IPA and the absorbance of the produced formazan crystals was measured using a Beckman Coulter AD340 plate reader (Indianapolis, Ind., USA). Percent viability was determined by normalization of the 570/620 absorbance ratio to the control untreated cells and positive control dead cells (ethanol treated).

MG = assay: DOX potency assay (MTT); format: cell-based, mouse; conditions: DOX concentration, 24-hour incubation
Procedure: as §1, §2

A172 = assay: DOX potency assay (MTT); format: cell-based; conditions: DOX concentration, 24-hour incubation
Procedure: as §1, §2

## COc1cccc2c1C(=O)c1c(O)c3c(c(O)c1C2=O)C[C@@](O)(C(=O)CO)C[C@@H]3O[C@H]1C[C@H](N)[C@H](O)[C@H](C)O1 [Free DOX, doxorubicin]
[1]
  LC50: 0.191 ± 0.0301 µg/mL (≈ 0.351 µM)
Cort Astro
  LC50 values: 0.322 ± 0.053 µg/mL (≈ 0.592 µM)
MG
  LC50 values: 0.267 ± 0.050 µg/mL (≈ 0.491 µM)
A172
  LC50 values: 0.193 ± 0.030 µg/mL (≈ 0.355 µM)
